According to patent US10251394B2, “Molecules having pesticidal utility, and intermediates, compositions, and processes, related thereto” (Dow AgroSciences LLC, priority 2016, dated 2019):

How the values were obtained:
Type in all cases: in vivo
[1] = tested on: Beet Armyworm (Spodoptera exigua); test: Bioassay on Beet Armyworm (BAW), 128-well diet tray assay; conditions: Beet Armyworm, Table ABC, read-out: BAW rating
Outline: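 Second-instar larvae (one to five per well) placed on artificial diet surface-treated with 50 μg/cm^2 test molecule in 90:10 acetone-water, dried, eight wells per molecule. Held at 25° C, 14:10 light-dark, five to seven days; percent mortality recorded per well and averaged across the eight wells.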

[2] = tested on: Cabbage Looper (Trichoplusia ni); test: Bioassay on Cabbage Looper (CL), 128-well diet tray assay; conditions: Cabbage Looper, Table ABC, read-out: CL rating
Outline: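 Second-instar larvae, one to five per well, placed on artificial diet surface-treated with 50 μg/cm^2 compound in acetone-water, eight wells per compound. Held 5-7 days at 25° C, 14:10 light-dark; percent mortality per well averaged across wells.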

[3] = tested on: Yellow Fever Mosquito (Aedes aegypti); test: Bioassay on Yellow Fever Mosquito (YFM) larvae, 96-well plate; conditions: Table ABC
Experimental: Example C: Bioassays on Yellow Fever Mosquito (Aedes Aegypti, AEDSAE) (“YFM”)
Certain molecules disclosed in this document were tested against YFM using procedures described in the following paragraph. In the reporting of the results, the “GPA & YFM Rating Table” was used (See Table Section).
Master plates containing 400 μg of a molecule dissolved in 100 μL of dimethyl sulfoxide (DMSO) (equivalent to a 4000 ppm solution) are used. A master plate of assembled molecules contains 15 μL per well. To this plate, 135 μL of a 90:10 water:acetone mixture is added to each well. A robot (Biomek® NXP Laboratory Automation Workstation) is programmed to dispense 15 μL aspirations from the master plate into an empty 96-well shallow plate (“daughter” plate). There are 6 reps (“daughter” plates) created per master. The created daughter plates are then immediately infested with YFM larvae.
The day before plates are to be treated, mosquito eggs are placed in Millipore water containing liver powder to begin hatching (4 g. into 400 mL). After the daughter plates are created using the robot, they are infested with 220 μL of the liver powder/larval mosquito mixture (about 1 day-old larvae). After plates are infested with mosquito larvae, a non-evaporative lid is used to cover the plate to reduce drying. Plates are held at room temperature for 3 days prior to grading. After 3 days, each well is observed and scored based on mortality. The results are indicated in the table entitled “Table ABC: Biological Results” (See Table Section).

C=Cc1c(Cl)cc(C(/C=C(\F)c2ccc(C(=O)NC3(C(=O)NCC(F)(F)F)CC3)c(C(F)(F)F)c2)C(F)(F)F)cc1Cl (centres unmarked) [F113, (Z)-4-(3-(3,5-Dichloro-4-vinylphenyl)-1,4,4,4-tetrafluorobut-1-en-1-yl)-N-(1-((2,2,2-trifluoroethyl)carbamoyl)cyclopropyl)-2-(trifluoromethyl)benzamide]
pest or weed control at 50 µg/cm2 [1]: 50 to 100%
pest or weed control at 50 µg/cm2 [2]: 50 to 100%
YFM rating [3]: A (80-100)

O=C(NC1(C(=O)NCC(F)(F)F)CC1)c1ccc(/C(F)=C/C(c2cc(Cl)cc(Br)c2)C(F)(F)F)cc1C(F)(F)F (centres unmarked) [F116, (Z)-4-(3-(3-Bromo-5-chlorophenyl)-1,4,4,4-tetrafluorobut-1-en-1-yl)-N-(1-((2,2,2-trifluoroethyl)carbamoyl)cyclopropyl)-2-(trifluoromethyl)benzamide]
pest or weed control at 50 µg/cm2 [1]: 50 to 100%
pest or weed control at 50 µg/cm2 [2]: 50 to 100%
YFM rating [3]: A (80-100)

CN(CC(F)(F)F)C(=O)C1(NC(=O)c2ccc(/C(F)=C/C(c3cc(Cl)cc(Br)c3)C(F)(F)F)cc2C(F)(F)F)CC1 (centres unmarked) [PF33, (Z)-4-(3-(3-Bromo-5-chlorophenyl)-1,4,4,4-tetrafluorobut-1-en-1-yl)-N-(1-(methyl(2,2,2-trifluoroethyl)carbamoyl)cyclopropyl)-2-(trifluoromethyl)benzamide]
pest or weed control at 50 µg/cm2 [1]: 50 to 100%
pest or weed control at 50 µg/cm2 [2]: 50 to 100%
YFM rating [3]: B (More than 0-Less than 80)

O=C(NC1(C(=O)NCC(F)(F)F)CC1)c1ccc(/C(F)=C/C(c2cc(Cl)cc(Cl)c2)C(F)(F)F)cc1C(F)(F)F (centres unmarked) [F39, (Z)-4-(3-(3,5-Dichlorophenyl)-1,4,4,4-tetrafluorobut-1-en-1-yl)-N-(1-((2,2,2-trifluoroethyl)carbamoyl)cyclopropyl)-2-(trifluoromethyl)benzamide]
pest or weed control at 50 µg/cm2 [1]: 50 to 100%
pest or weed control at 50 µg/cm2 [2]: 50 to 100%
YFM rating [3]: A (80-100)

Cc1cc(C(/C=C(\F)c2ccc(C(=O)N[C@H](C)C(=O)N(C)CC(F)(F)F)c(C(F)(F)F)c2)C(F)(F)F)cc(C)c1Cl (stereo partly drawn) [F102, 4-((Z)-3-(4-Chloro-3,5-dimethylphenyl)-1,4,4,4-tetrafluorobut-1-en-1-yl)-N—((R)-1-(methyl(2,2,2-trifluoroethyl)amino)-1-oxopropan-2-yl)-2-(trifluoromethyl)benzamide]
pest or weed control at 50 µg/cm2 [1]: 50 to 100%
pest or weed control at 50 µg/cm2 [2]: 50 to 100%
YFM rating [3]: A (80-100)

Cc1cc(C(/C=C(\F)c2ccc(C(=O)NCC(=O)N(C)CC(F)(F)F)c(C(F)(F)F)c2)C(F)(F)F)cc(Cl)c1Cl (centres unmarked) [PF12, (Z)-4-(3-(3,4-Dichloro-5-methylphenyl)-1,4,4,4-tetrafluoro-but-1-en-1-yl)-N-(2-(methyl(2,2,2-trifluoroethyl)amino)-2-oxoethyl)-2-(trifluoromethyl)benzamide]
pest or weed control at 50 µg/cm2 [1]: 50 to 100%
pest or weed control at 50 µg/cm2 [2]: 50 to 100%
YFM rating [3]: B (More than 0-Less than 80)

C[C@@H](NC(=O)c1ccc(/C(F)=C/C(c2cc(Cl)cc(Cl)c2)C(F)(F)F)cc1C(F)(F)F)C(=O)N(C)CC(F)(F)F (stereo partly drawn) [F72, 4-((Z)-3-(3,5-Dichlorophenyl)-1,4,4,4-tetrafluorobut-1-en-1-yl)-N—((R)-1-(methyl(2,2,2-trifluoroethyl)amino)-1-oxopropan-2-yl)-2-(trifluoromethyl)benzamide]
pest or weed control at 50 µg/cm2 [1]: 50 to 100%
pest or weed control at 50 µg/cm2 [2]: 50 to 100%
YFM rating [3]: A (80-100)

CN(CC(F)(F)F)C(=O)C1(NC(=O)c2ccc(/C(F)=C/C(c3ccc(Cl)c(Cl)c3)C(F)(F)F)cc2C(F)(F)F)CC1 (centres unmarked) [F135, (Z)-4-(3-(3,4-Dichlorophenyl)-1,4,4,4-tetrafluorobut-1-en-1-yl)-N-(1-(methyl(2,2,2-trifluoroethyl)carbamoyl)cyclopropyl)-2-(trifluoromethyl)benzamide]
YFM rating [3]: B (More than 0-Less than 80)

CN(CC(F)(F)F)C(=O)C1(NC(=O)c2ccc(/C(F)=C/C(c3cc(Cl)cc(Cl)c3)C(F)(F)F)cc2C(F)(F)F)CC1 (centres unmarked) [F133, (Z)-4-(3-(3,5-Dichlorophenyl)-1,4,4,4-tetrafluorobut-1-en-1-yl)-N-(1-(methyl(2,2,2-trifluoroethyl)carbamoyl)cyclopropyl)-2-(trifluoromethyl)benzamide]
YFM rating [3]: B (More than 0-Less than 80)

Cc1cc(C(/C=C(\F)c2ccc(C(=O)NC3(C(=O)N(C)CC(F)(F)F)CC3)c(C(F)(F)F)c2)C(F)(F)F)cc(C)c1Cl (centres unmarked) [F134, (Z)-4-(3-(4-Chloro-3,5-dimethylphenyl)-1,4,4,4-tetrafluorobut-1-en-1-yl)-N-(1-(methyl(2,2,2-trifluoroethyl)carbamoyl)cyclopropyl)-2-(trifluoromethyl)benzamide]
YFM rating [3]: B (More than 0-Less than 80)

C[C@@H](NC(=O)c1ccc(/C(F)=C/C(c2cc(F)c(F)c(Br)c2)C(F)(F)F)cc1C(F)(F)F)C(=O)NCC(F)(F)F (stereo partly drawn) [F214, 4-((Z)-3-(3-Bromo-4,5-difluorophenyl)-1,4,4,4-tetrafluorobut-1-en-1-yl)-N—((R)-1-oxo-1-((2,2,2-trifluoroethyl)amino)propan-2-yl)-2-(trifluoromethyl)benzamide]
pest or weed control at 50 µg/cm2 [1]: 50 to 100%
pest or weed control at 50 µg/cm2 [2]: 50 to 100%

C[C@@H](NC(=O)c1ccc(/C(F)=C/C(c2cc(Cl)cc(Cl)c2)C(F)(F)F)cc1C(F)(F)F)C(=O)NCC(F)(F)F (stereo partly drawn) [F144, 4-((Z)-3-(3,5-Dichlorophenyl)-1,4,4,4-tetrafluorobut-1-en-1-yl)-N—((R)-1-oxo-1-((2,2,2-trifluoroethyl)amino)propan-2-yl)-2-(trifluoromethyl)benzamide]
YFM rating [3]: A (80-100)

CC(C)(NC(=O)c1ccc(/C(F)=C/C(c2cc(Cl)c(Cl)c(Cl)c2)C(F)(F)F)cc1C(F)(F)F)C(=O)NCC(F)(F)F (centres unmarked) [F54, (Z)—N-(2-Methyl-1-oxo-1-((2,2,2-trifluoroethyl)amino)propan-2-yl)-4-(1,4,4,4-tetrafluoro-3-(3,4,5-trichlorophenyl)but-1-en-1-yl)-2-(trifluoromethyl)benzamide]
pest or weed control at 50 µg/cm2 [1]: 50 to 100%
pest or weed control at 50 µg/cm2 [2]: 50 to 100%

C[C@@H](NC(=O)c1ccc(/C(F)=C/C(c2ccc(OCC(F)(F)F)c(Cl)c2)C(F)(F)F)cc1C(F)(F)F)C(=O)NCC(F)(F)F (stereo partly drawn) [F162, 4-((Z)-3-(3-Chloro-4-(2,2,2-trifluoroethoxy)phenyl)-1,4,4,4-tetrafluorobut-1-en-1-yl)-N—((R)-1-oxo-1-((2,2,2-trifluoroethyl)amino)propan-2-yl)-2-(trifluoromethyl)benzamide]
pest or weed control at 50 µg/cm2 [1]: 50 to 100%
pest or weed control at 50 µg/cm2 [2]: 50 to 100%

C[C@@H](NC(=O)c1ccc(/C(F)=C/C(c2cc(Cl)c(Cl)c(Cl)c2)C(F)(F)F)cc1C(F)(F)F)C(=O)NC1CC(F)(F)C1 (stereo partly drawn) [F168, N—((R)-1-((3,3-difluorocyclobutyl)amino)-1-oxopropan-2-yl)-4-((Z)-1,4,4,4-tetrafluoro-3-(3,4,5-trichlorophenyl)but-1-en-1-yl)-2-(trifluoromethyl)benzamide]
pest or weed control at 50 µg/cm2 [1]: 50 to 100%
pest or weed control at 50 µg/cm2 [2]: 50 to 100%

CN(CC(F)(F)F)C(=O)C1(NC(=O)c2ccc(/C(F)=C/C(c3cc(Br)cc(Br)c3)C(F)(F)F)cc2C(F)(F)F)CC1 (centres unmarked) [F108, (Z)-4-(3-(3,5-Dibromophenyl)-1,4,4,4-tetrafluorobut-1-en-1-yl)-N-(1-(methyl(2,2,2-trifluoroethyl)carbamoyl)cyclopropyl)-2-(trifluoromethyl)benzamide]
pest or weed control at 50 µg/cm2 [1]: 50 to 100%
pest or weed control at 50 µg/cm2 [2]: 50 to 100%

C#Cc1cc(C(/C=C(\F)c2ccc(C(=O)N[C@H](C)C(=O)NCC(F)(F)F)c(C(F)(F)F)c2)C(F)(F)F)cc(Cl)c1Cl (stereo partly drawn) [F189, 4-((Z)-3-(3,4-Dichloro-5-ethynylphenyl)-1,4,4,4-tetrafluorobut-1-en-1-yl)-N—((R)-1-oxo-1-((2,2,2-trifluoroethyl)amino)propan-2-yl)-2-(trifluoromethyl)benzamide]
pest or weed control at 50 µg/cm2 [1]: 50 to 100%
pest or weed control at 50 µg/cm2 [2]: 50 to 100%

C=C(C)c1c(Cl)cc(C(/C=C(\F)c2ccc(C(=O)N[C@H](C)C(=O)NCC(F)(F)F)c(C(F)(F)F)c2)C(F)(F)F)cc1Cl (stereo partly drawn) [F148, 4-((Z)-3-(3,5-Dichloro-4-(prop-1-en-2-yl)phenyl)-1,4,4,4-tetrafluorobut-1-en-1-yl)-N—((R)-1-oxo-1-((2,2,2-trifluoroethyl)amino)propan-2-yl)-2-(trifluoromethyl)benzamide]
pest or weed control at 50 µg/cm2 [1]: 50 to 100%
pest or weed control at 50 µg/cm2 [2]: 50 to 100%

O=C(NC1(C(=S)NCC(F)(F)F)CC1)c1ccc(/C(F)=C/C(c2cc(Cl)c(Cl)c(Cl)c2)C(F)(F)F)cc1C(F)(F)F (centres unmarked) [PF98, (Z)-4-(1,4,4,4-Tetrafluoro-3-(3,4,5-trichlorophenyl)but-1-en-1-yl)-N-(1-((2,2,2-trifluoroethyl)carbamothioyl)cyclopropyl)-2-(trifluoromethyl)benzamide]
pest or weed control at 50 µg/cm2 [1]: 50 to 100%
pest or weed control at 50 µg/cm2 [2]: 50 to 100%
